# In publication PMC5007552, “The hVps34‐SGK3 pathway alleviates sustained PI3K/Akt inhibition by stimulating mTORC1 and tumour growth” (The EMBO Journal, 2016):
# Values joined by “and” are separate entries in the source; they are usually repeats but may differ in a detail not shown here. Identical values can stand only once.
# Test system: ZR-75-1 cells
# Assay: NanoString human kinome mRNA quantification
# Format: cell-based
# Text: Human mRNAs were hybridised to NanoString human kinome and control code sets, then subjected to quantification using NanoString software. […] To permit data compaction, and simple kinome‐wide comparisons, the fold changes are log2 transformed. […] Cell pellets were resuspended at a concentration of ~6,500 cells/μl in RLT buffer (Qiagen). […] For total copy numbers, triplicate normalised count values were averaged, and to calculate fold induction, means were divided by triplicate mean values from matched DMSO controls. P‐values were calculated using unpaired t‐test (GraphPad Prism software) by employing treated and control count data for each kinase mRNA.
smiles,measurement,setting,value
NC1(c2ccc(-c3nc4ccn5c(=O)[nH]nc5c4cc3-c3ccccc3)cc2)CCC1 [MK-2206],MAP2K6 Normalised counts (single replicates),"MAP2K6 mRNA, replicates 1-3",273.54 and 301.57
same,MAP2K7 Normalised counts Average,"MAP2K7 mRNA, average of 3",452.7
same,MAP2K7 Normalised counts (single replicates),"MAP2K7 mRNA, replicates 1-3",481.41 and 429.05 and 447.64
same,MAP3K1 Normalised counts Average,"MAP3K1 mRNA, average of 3",914.477
same,MAP3K1 Normalised counts (single replicates),"MAP3K1 mRNA, replicates 1-3",890.44 and 933.79 and 919.2
same,MAP3K2 Normalised counts Average,"MAP3K2 mRNA, average of 3",686.32
same,MAP3K2 Normalised counts (single replicates),"MAP3K2 mRNA, replicates 1-3",635.93 and 734.85 and 688.18
same,MAP3K3 Normalised counts Average,"MAP3K3 mRNA, average of 3",686.967
same,MAP3K3 Normalised counts (single replicates),"MAP3K3 mRNA, replicates 1-3",685.93 and 665.35 and 709.62
same,MAP3K4 Normalised counts Average,"MAP3K4 mRNA, average of 3",878.993
same,MAP3K4 Normalised counts (single replicates),"MAP3K4 mRNA, replicates 1-3",874.08 and 929.44 and 833.46
same,MAP3K5 Normalised counts Average,"MAP3K5 mRNA, average of 3",52.5933
same,MAP3K5 Normalised counts (single replicates),"MAP3K5 mRNA, replicates 1-3",46.02 and 55.49 and 56.27
same,MAP3K6 Normalised counts Average,"MAP3K6 mRNA, average of 3",449.24
same,MAP3K6 Normalised counts (single replicates),"MAP3K6 mRNA, replicates 1-3",420.51 and 453.37 and 473.84
same,MAP3K7 Normalised counts Average,"MAP3K7 mRNA, average of 3",743.277
same,MAP3K7 Normalised counts (single replicates),"MAP3K7 mRNA, replicates 1-3",716.83 and 700.97 and 812.03
same,MAP3K8 Normalised counts Average,"MAP3K8 mRNA, average of 3",26.4033
same,MAP3K8 Normalised counts (single replicates),"MAP3K8 mRNA, replicates 1-3",26.93 and 28.56 and 23.72
same,MAP3K9 Normalised counts Average,"MAP3K9 mRNA, average of 3",379.6
same,MAP3K9 Normalised counts (single replicates),"MAP3K9 mRNA, replicates 1-3",365.97 and 402.99 and 369.84
same,MAP3K10 Normalised counts Average,"MAP3K10 mRNA, average of 3",168.847
same,MAP3K10 Normalised counts (single replicates),"MAP3K10 mRNA, replicates 1-3",162.36 and 182.33 and 161.85
same,MAP3K11 Normalised counts Average,"MAP3K11 mRNA, average of 3",121.413
same,MAP3K11 Normalised counts (single replicates),"MAP3K11 mRNA, replicates 1-3",113.28 and 123.25 and 127.71
same,MAP3K12 Normalised counts Average,"MAP3K12 mRNA, average of 3",52.4667
same,MAP3K12 Normalised counts (single replicates),"MAP3K12 mRNA, replicates 1-3",51.47 and 61.57 and 44.36
same,MAP3K13 Normalised counts Average,"MAP3K13 mRNA, average of 3",189.707
same,MAP3K13 Normalised counts (single replicates),"MAP3K13 mRNA, replicates 1-3",181.45 and 198.83 and 188.84
same,MAP3K14 Normalised counts Average,"MAP3K14 mRNA, average of 3",43.9833
same,MAP3K14 Normalised counts (single replicates),"MAP3K14 mRNA, replicates 1-3",37.84 and 44.2 and 49.91
same,MAP3K15 Normalised counts Average,"MAP3K15 mRNA, average of 3",13.0267
same,MAP3K15 Normalised counts (single replicates),"MAP3K15 mRNA, replicates 1-3",12.38 and 17.27 and 9.43
same,MAP4K1 Normalised counts Average,"MAP4K1 mRNA, average of 3",25.6067
same,MAP4K1 Normalised counts (single replicates),"MAP4K1 mRNA, replicates 1-3",20.57 and 28.56 and 27.69
same,MAP4K2 Normalised counts Average,"MAP4K2 mRNA, average of 3",517.167
same,MAP4K2 Normalised counts (single replicates),"MAP4K2 mRNA, replicates 1-3",521.4 and 514.19 and 515.91
same,MAP4K3 Normalised counts Average,"MAP4K3 mRNA, average of 3",998.393
same,MAP4K3 Normalised counts (single replicates),"MAP4K3 mRNA, replicates 1-3",947.71 and 1044.12 and 1003.35
same,MAP4K4 Normalised counts Average,"MAP4K4 mRNA, average of 3",871.587
same,MAP4K4 Normalised counts (single replicates),"MAP4K4 mRNA, replicates 1-3",808.64 and 924.23 and 881.89
same,MAP4K5 Normalised counts Average,"MAP4K5 mRNA, average of 3",2400.42
same,MAP4K5 Normalised counts (single replicates),"MAP4K5 mRNA, replicates 1-3",2332.97 and 2437.58 and 2430.72
same,MAPK1 Normalised counts Average,"MAPK1 mRNA, average of 3",3519.07
same,MAPK1 Normalised counts (single replicates),"MAPK1 mRNA, replicates 1-3",3459.18 and 3429.68 and 3668.36
same,MAPK3 Normalised counts Average,"MAPK3 mRNA, average of 3",2954.55
same,MAPK3 Normalised counts (single replicates),"MAPK3 mRNA, replicates 1-3",2922.89 and 2952.74 and 2988.02
same,MAPK4 Normalised counts Average,"MAPK4 mRNA, average of 3",4.88
same,MAPK4 Normalised counts (single replicates),"MAPK4 mRNA, replicates 1-3",3.29 and 5.1 and 6.25
same,MAPK6 Normalised counts Average,"MAPK6 mRNA, average of 3",1788.65
same,MAPK6 Normalised counts (single replicates),"MAPK6 mRNA, replicates 1-3",1729.42 and 1778.2 and 1858.34
same,MAPK7 Normalised counts Average,"MAPK7 mRNA, average of 3",144.45
same,MAPK7 Normalised counts (single replicates),"MAPK7 mRNA, replicates 1-3",156 and 134.55 and 142.8
same,MAPK8 Normalised counts Average,"MAPK8 mRNA, average of 3",551.453
same,MAPK8 Normalised counts (single replicates),"MAPK8 mRNA, replicates 1-3",558.67 and 556.75 and 538.94
same,MAPK9 Normalised counts Average,"MAPK9 mRNA, average of 3",3428.01
same,MAPK9 Normalised counts (single replicates),"MAPK9 mRNA, replicates 1-3",3385.55 and 3472.25 and 3426.23
same,MAPK10 Normalised counts Average,"MAPK10 mRNA, average of 3",51.74
same,MAPK10 Normalised counts (single replicates),"MAPK10 mRNA, replicates 1-3",66.92 and 32.03 and 56.27
same,MAPK11 Normalised counts Average,"MAPK11 mRNA, average of 3",204.103
same,MAPK11 Normalised counts (single replicates),"MAPK11 mRNA, replicates 1-3",193.27 and 212.73 and 206.31
same,MAPK12 Normalised counts Average,"MAPK12 mRNA, average of 3",217.317
same,MAPK12 Normalised counts (single replicates),"MAPK12 mRNA, replicates 1-3",225.99 and 210.13 and 215.83
same,MAPK13 Normalised counts Average,"MAPK13 mRNA, average of 3",1105.76
same,MAPK13 Normalised counts (single replicates),"MAPK13 mRNA, replicates 1-3",1118.59 and 1094.51 and 1104.17
same,MAPK14 Normalised counts Average,"MAPK14 mRNA, average of 3",677.43
same,MAPK14 Normalised counts (single replicates),"MAPK14 mRNA, replicates 1-3",691.38 and 666.22 and 674.69
same,MAPK15 Normalised counts Average,"MAPK15 mRNA, average of 3",105.53
same,MAPK15 Normalised counts (single replicates),"MAPK15 mRNA, replicates 1-3",90.56 and 110.22 and 115.81
same,MAPKAPK2 Normalised counts Average,"MAPKAPK2 mRNA, average of 3",1630.94
same,MAPKAPK2 Normalised counts (single replicates),"MAPKAPK2 mRNA, replicates 1-3",1646.7 and 1595.77 and 1650.35
same,MAPKAPK3 Normalised counts Average,"MAPKAPK3 mRNA, average of 3",413.777
same,MAPKAPK3 Normalised counts (single replicates),"MAPKAPK3 mRNA, replicates 1-3",380.52 and 429.05 and 431.76
same,MAPKAPK5 Normalised counts Average,"MAPKAPK5 mRNA, average of 3",1446.88
same,MAPKAPK5 Normalised counts (single replicates),"MAPKAPK5 mRNA, replicates 1-3",1508.54 and 1415.94 and 1416.16
same,MARK1 Normalised counts Average,"MARK1 mRNA, average of 3",415.69
same,MARK1 Normalised counts (single replicates),"MARK1 mRNA, replicates 1-3",399.6 and 430.79 and 416.68
same,MARK2 Normalised counts Average,"MARK2 mRNA, average of 3",1522.43
same,MARK2 Normalised counts (single replicates),"MARK2 mRNA, replicates 1-3",1510.36 and 1537.56 and 1519.36
same,MARK3 Normalised counts Average,"MARK3 mRNA, average of 3",1279.49
same,MARK3 Normalised counts (single replicates),"MARK3 mRNA, replicates 1-3",1275.85 and 1283.02 and 1279.61
same,MARK4 Normalised counts Average,"MARK4 mRNA, average of 3",1238.46
same,MARK4 Normalised counts (single replicates),"MARK4 mRNA, replicates 1-3",1216.76 and 1258.7 and 1239.92
same,MAST1 Normalised counts Average,"MAST1 mRNA, average of 3",64.11
same,MAST1 Normalised counts (single replicates),"MAST1 mRNA, replicates 1-3",68.74 and 54.62 and 68.97
same,MAST2 Normalised counts Average,"MAST2 mRNA, average of 3",721.127
